Data taken from patent publication US9949980B2, “Drugs to prevent HPV infection” (Wisconsin Alumni Research Foundation, priority 2008, dated 2018).
Read-outs that look alike come from different tables or passages of the source.

Columns and labels:
[1] = in vitro; conditions: human, Viability (CelTiter Glow)
Protocol: (§1) FIG. 1. High throughout screen (HTS) for identifying inhibitors of HPV infection. Shown is a schematic showing basic steps in the HTS. […] Briefly, HPV16 pseudoviruses containing the SEAP reporter genes are analyzed for their ability to infect as judged by the levels of secreted alkaline phosphatase in the tissue culture supernatant (light grey arrows). Cell viability was assessed in parallel on the same wells (dark grey arrows). In the specific HTS carried out in this study, the compounds were added at 3 uM/1% DMSO final concentration (black arrow) 4 hours prior to infection.
(§2) After incubation at 37° C. for 24 hrs, 35 μL of media was removed. […] Cells were incubated at 37° C. for 48 hrs. 2.5 μL of media was collected for SEAP assay using a PHOSPHA-LIGHT chemiluminescent alkaline phosphatase assay (Applied Biosystems). Cell viability was determined using the CellTiter Glo Luminescent Cell Viability Assay™ (Promega).

[2] = system: HPV16 pseudoviruses; experiment: microbe, parasite or virus in culture; format: cell-based; conditions: Human papillomavirus 16, HEK-293T, 48 h
Protocol: as §1, §2

[3] = read-out: Infectivity (SEAP Activity), 3 μM HTS standard concentration, 293T cells, 48 hrs
[4] = read-out: Infectivity vs. viability, 3 μM HTS standard concentration, ratio infectivity/viability

Row | SMILES | viability at 52 h, 3 μM [1] | activity at 3 µM [2, 3] | activity at 3 µM [2, 4]
1 | COc1ccc(C(NC(=O)Cc2ccccc2)c2ccc3cccnc3c2O)cc1 (stereo not drawn) [Compound 5929288, N-[(8-hydroxy-7-quinolinyl)(4-methoxyphenyl)methyl]-2-phenylacetamide] | 59.8% | 1.44% | 2.41%
2 | COc1cc(NC(=O)C=Cc2ccc(OC)c(Br)c2)c(OC)cc1Cl [Compound 5944623, 3-(3-bromo-4-methoxyphenyl)-N-(4-chloro-2,5-dimethoxyphenyl)acrylamide] | 98.5% | 48.8% | 49.5%
3 | Cc1ccc2nc3nc(C)cc(C)c3c(N)c2c1 [Compound 5947488, 2,4,7-trimethylbenzo[b]-1,8-naphthyridin-5-amine] | 68% | 34.6% | 51%
4 | Cc1ccc2cc(C3CC(c4ccc(Br)cc4)=NN3C(=O)CCC(=O)O)c(=O)[nH]c2c1 (stereo not drawn) [Compound 5976736, 4-[3-(4-bromophenyl)-5-(7-methyl-2-oxo-1,2-dihydro-3-quinolinyl)-4,5-dihydro-1H-pyrazol-1-yl]-4-oxobutanoic acid] | 105% | 42.2% | 40.2%
5 | Cc1ccc(CN2CCN(S(C)(=O)=O)CC2)cc1 [Compound 5994189, 1-(4-methylbenzyl)-4-(methylsulfonyl)piperazine] | 109% | 39.8% | 36.5%
6 | Cc1nc2ccccc2c(=O)n1N=Cc1c(O)ccc2ccccc12 [Compound 6001901, 3-{[(2-hydroxy-1-naphthyl)methylene]amino}-2-methyl-4(3H)-quinazolinone] | 110% | 65.8% | 60%
7 | Cc1cc(OCC(=O)Nc2ccc(N3CCOCC3)c(Cl)c2)cc(C)c1Cl [Compound 6013775, 2-(4-chloro-3,5-dimethylphenoxy)-N-[3-chloro-4-(4-morpholinyl)phenyl]acetamide] | 105% | 58.8% | 56%
8 | Cc1cc(Cl)ccc1OCC(=O)Nc1ccc(Br)c(NC(=O)c2ccccc2)c1 [Compound 6016344, N-(2-bromo-5-{[(4-chloro-2-methylphenoxy)acetyl]amino}phenyl)benzamide] | 94.6% | 51.4% | 54.4%
9 | CCOc1ccc(C(=O)Nc2ccc3oc(-c4ccccc4F)nc3c2)cc1Cl [Compound 6021315, 3-chloro-4-ethoxy-N-[2-(2-fluorophenyl)-1,3-benzoxazol-5-yl]benzamide] | 96.3% | 47% | 48.8%
10 | Cc1ccccc1C(=O)Nc1cccc(NC(=O)c2ccc(-c3ccc(Br)cc3)o2)c1 [Compound 6021688, 5-(4-bromophenyl)-N-{3-[(2-methylbenzoyl)amino]phenyl}-2-furamide] | 104% | 40.2% | 38.7%
11 | O=[N+]([O-])c1cc(-n2ncnc2-c2ccc3c(c2)OCO3)ccc1F [Compound 6033199, 5-(1,3-benzodioxol-5-yl)-1-(4-fluoro-3-nitrophenyl)-1H-1,2,4-triazole] | 106% | 50.6% | 47.9%
12 | CC(c1ccccc1)c1nnc(NC(=O)Nc2ccc(Cl)cc2)s1 (stereo not drawn) [Compound 6040256, N-(4-chlorophenyl)-N′-[5-(1-phenylethyl)-1,3,4-thiadiazol-2-yl]urea] | 97.5% | 29.6% | 30.4%
13 | O=C(Nc1ccccc1C(=O)N[C@@H](Cc1ccccc1)C(=O)O)c1ccccc1 [Compound 6058136, N-[2-(benzoylamino)benzoyl]phenylalanine] | 109% | 64.7% | 59.1%
14 | CCCCNC(=O)c1cc2nc(-c3ccc(OCC)cc3)cc(C)n2n1 [Compound 6070486, N-butyl-5-(4-ethoxyphenyl)-7-methylpyrazolo[1,5-a]pyrimidine-2-carboxamide] | 113% | 54.6% | 48.3%
15 | Cc1ccc(OCc2nnc(NC(=O)Nc3ccc(Cl)c(Cl)c3)s2)cc1 [Compound 6070527, N-(3,4-dichlorophenyl)-N′-{5-[(4-methylphenoxy)methyl]-1,3,4-thiadiazol-2-yl}urea] | 105% | 41.8% | 39.8%
16 | O=C(Nc1ccccc1)Nc1nnc(COc2ccc(Cl)cc2)s1 [Compound 6072068, N-{5-[(4-chlorophenoxy)methyl]-1,3,4-thiadiazol-2-yl}-N′-phenylurea] | 112% | 54.5% | 48.8%
17 | Cc1ccc(-c2cc(N)n(Cc3ccc(Cl)cc3)n2)cc1 [Compound 6077076, 1-(4-chlorobenzyl)-3-(4-methylphenyl)-1H-pyrazol-5-amine] | 74.4% | 20.9% | 28.1%
18 | COc1ccccc1CC(N)=NOC(=O)COc1ccc(C)cc1 [Compound 6084167, 2-(2-methoxyphenyl)-N′-{[(4-methylphenoxy)acetyl]oxy}ethanimidamide] | 114% | 53.8% | 47.2%
19 | O=c1oc2c3c4c(cc2cc1CCO)CCCN4CCC3 [Compound 6105180, 10-(2-hydroxyethyl)-2,3,6,7-tetrahydro-1H,5H,11H-pyrano[2,3-f]pyrido[3,2,1-ij]quinolin-11-one] | 115% | 56.9% | 49.5%
20 | CN(C)c1cccc(C(=O)NCc2ccc(S(N)(=O)=O)cc2)c1 [Compound 6106063, N-[4-(aminosulfonyl)benzyl]-3-(dimethylamino)benzamide] | 105% | 45.6% | 43.4%
21 | Cc1c(NS(=O)(=O)c2cc(Cl)ccc2Cl)cccc1[N+](=O)[O-] [Compound 6107659, 2,5-dichloro-N-(2-methyl-3-nitrophenyl)benzenesulfonamide] | 67.8% | 22.3% | 32.9%
22 | CCOc1cccc(C(=O)Nc2ccc(NC(=O)c3ccco3)c(OC)c2)c1 [Compound 6113089, N-{4-[(3-ethoxybenzoyl)amino]-2-methoxyphenyl}-2-furamide] | 103% | 54.6% | 52.9%
23 | COc1cc(NC(=O)COc2ccccc2C)ccc1NC(=O)c1ccco1 [Compound 6113090, N-(2-methoxy-4-{[(2-methylphenoxy)acetyl]amino}phenyl)-2-furamide] | 106% | 55% | 51.9%
24 | COc1ccc(S(=O)(=O)Nc2cc(Cl)ccc2C)cc1 [Compound 6118535, N-(5-chloro-2-methylphenyl)-4-methoxybenzenesulfonamide] | 73.9% | 39% | 52.8%
25 | Cc1cccc(C(=O)Nc2cccc(NC(=O)COc3ccccc3Cl)c2)c1 [Compound 6126189, N-(3-{[(2-chlorophenoxy)acetyl]amino}phenyl)-3-methylbenzamide] | 99.1% | 49.8% | 50.2%
